For data set [1], the system named is Eimeria tenella. Nature of the data set: Eimeria tenella infection in laboratory chickens. The format is in vivo. Set-up: Average degree of infection: scale not given here. As for the experimental part: (A) Eimeria tanella infection in laboratory chickens
Test method.--This test utilizes ten chickens per drug group. Ten chickens are employed as a weight control and ten chickens as an infected control. The drug is given 48 hours in advance of the infection. One gm. of the test drug is mixed in a mechanical mixer with a sufficient amount of chicken feed to result in the desired dosage. The infection consists of approximately 200,000 oocysts given orally by pipette. The tests lasts for eleven days and then the surviving birds are autopsied and examined for gross lesions in the ceca. The test birds are rated according to the number of survivors and the number of cecal lesions. The results are expressed as average degree of infection (A.D.I.). An average degree of infection of less than 2.5 is considered significant.

The nature of data set [2]: Acute oral toxicity in broiler chicks. The settings on record: chicken, in vivo; oral single dose, 9- or 8-day-old chicks; limits given as 59 ±3 mg. and 84 ±7 mg.

Where a name gives a salt, the structure may show the parent alone.

On to `CCC(C(=O)C(C)C(O)C(C)CCc1ccc(C)c(O)c1C(=O)O)C1OC(CC)(C2CCC(O)(CC)C(C)O2)CC1C` (stereo not drawn) [sodium salt of antibiotic X-537A], for which the “Average degree of infection” value in data set [1] (text: 0.003% of active ingredient in feed to chicks) was 1.7; in data set [1] (text: 0.006% of active ingredient in feed to chicks), 0.2. Moreover, the LD50 (in general, the dose expected to kill half of the subjects tested) in data set [2] fell in the range of 59 to 84 mg/kg.

Values taken from patent USRE29244E, “Coccidiostats” (priority 1976, dated 1977).
